Results on 25 compounds are retold here after patent publication US20250368625A1, “PIPERAZINES” (Grünenthal GmbH, priority 2024, published 2025).

pEC50: −log10 of the molar value.

In general, pEC50 refers to the negative decadic logarithm of the EC50, by convention in mol/L.

The test deals with T1, human SSTR4 (Homo sapiens, UniProt P31391).
T1 construct: expressed in transfected cells; host or cells: CHO-K1
T1 sequence (P31391 whole entry): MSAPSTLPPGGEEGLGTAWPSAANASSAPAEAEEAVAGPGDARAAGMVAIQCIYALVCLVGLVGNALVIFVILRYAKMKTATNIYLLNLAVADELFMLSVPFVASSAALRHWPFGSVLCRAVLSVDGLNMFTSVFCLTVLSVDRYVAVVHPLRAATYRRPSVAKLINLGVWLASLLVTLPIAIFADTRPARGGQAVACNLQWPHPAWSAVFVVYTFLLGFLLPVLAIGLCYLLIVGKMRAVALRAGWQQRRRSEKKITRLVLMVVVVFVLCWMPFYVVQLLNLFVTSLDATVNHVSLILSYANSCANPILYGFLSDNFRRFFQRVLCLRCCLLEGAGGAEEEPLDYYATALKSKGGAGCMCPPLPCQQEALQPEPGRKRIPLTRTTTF
The experiment in a line: hSSTR4 cAMP assay (cAMP accumulation, LANCE Ultra cAMP kit, CHO-K1 human SSTR4 Gi cell line). The format is cell-based. Particulars: functional agonism, forskolin 10 μM stimulated CHO-K1 human SSTR4 Gi cells, 30 min at 25° C., at least duplicate, averaged; read-out: hSSTR4 EC50. The procedure:
cAMP accumulation assay using a CHO-K1 human SSTR4 Gi cell line.
Quantification of intracellular cAMP was performed using the LANCE Ultra cAMP assay kit from Revvity according to the manufacturer's instructions. CHO-K1 human SSTR4 Gi cell were either seeded in a density of 3K cells per well into a 384 well plate and incubated at 37° C. and 5% CO2 for 18-20 h or a stock of frozen cells were defrosted and seeded in a density of 5K cells per well without any further cultivation directly prior to the assay in a total volume of 5 μL in stimulation buffer. For pre-cultured cells, medium was replaced with 5 μL stimulation buffer before the assay. Cells were then stimulated with forskolin (final concentration 10 μM) and test compound (SSTR4 agonist) in increasing concentrations in duplicates for 30 min at 25° C. After stimulation, cells were lysed by addition of 10 μL of detection buffer (provided with the kit) and cell lysates were further diluted to ensure final cAMP concentrations fitted well into the dynamic range of the test kit. 10 μL of the diluted lysates were then added to respective wells of an OptiPlate-384 microplate. Thereafter, 5 μL of 4× Eu-cAMP tracer working solution was added, followed by addition of 5 μL of ULight-anti-cAMP working solution. The plate was then incubated for 1 h at 25° C. before reading on a TR-FRET microplate instrument. Data were normalized to cAMP high (forskolin only) and low control (forskolin+100 nM SST14) before fitting to a 4-Paramter logistic function.
All data was generated according to the cAMP assay conditions described above in at least duplicate and results are averaged and rounded to two significant figures.
On the technique in general: Changes in cAMP serve as a functional read-out for many G protein-coupled receptors.
Turning to `Cn1cc(CN2CCNC[C@H]2C(=O)NC(C)(C)c2ncc3c(C(F)(F)F)cccn23)cn1` [SC-111, (S)-1-((1-methyl-1H-pyrazol-4-yl)methyl)-N-(2-(8-(trifluoromethyl)imidazo[1,5-a]pyridin-3-yl)propan-2-yl)piperazine-2-carboxamide], the pEC50 was 7.03.
The value for `Cc1cccn2c(C(C)(C)NC(=O)[C@@H]3CN(C4COC4)CCN3)ncc12` [SC-075, (S)-N-(2-(8-methylimidazo[1,5-a]pyridin-3-yl)propan-2-yl)-4-(oxetan-3-yl)piperazine-2-carboxamide] was 6.21; that for `Cc1cccn2c(C(C)(C)NC(=O)[C@@H]3CN(Cc4ccccc4)CCN3)ncc12` [SC-058, (S)-4-benzyl-N-(2-(8-methylimidazo[1,5-a]pyridin-3-yl)propan-2-yl)piperazine-2-carboxamide] was 5.77; that for `Cn1nc(C(C)(C)NC(=O)[C@@H]2CNCCN2CC2COC2)c2ccccc21` [SC-123, (S)—N-(2-(1-methyl-1H-indazol-3-yl)propan-2-yl)-1-(oxetan-3-ylmethyl)piperazine-2-carboxamide] was 8.15.
The value for `Cc1cccn2c(C(C)(C)NC(=O)[C@@H]3CNCCN3Cc3ccccc3F)ncc12` [SC-026, (S)-1-(2-fluorobenzyl)-N-(2-(8-methylimidazo[1,5-a]pyridin-3-yl)propan-2-yl)piperazine-2-carboxamide] was 9.92; that for `Cc1cccn2c(C(C)(C)NC(=O)[C@@H]3CNCCN3CC3(C)CCC(F)(F)CC3)ncc12` [SC-024, (S)-1-((4,4-difluoro-1-methylcyclohexyl)methyl)-N-(2-(8-methylimidazo[1,5-a]pyridin-3-yl)propan-2-yl)piperazine-2-carboxamide] was 9.34; that for `Cc1cccn2c(C(C)(C)NC(=O)[C@@H]3CNCCN3)ncc12` [SC-015, (S)-N-(2-(8-methylimidazo[1,5-a]pyridin-3-yl)propan-2-yl)piperazine-2-carboxamide] was 8.02.
For the compound `Cc1cccn2c(C(C)(C)NC(=O)[C@@H]3CNCCN3CC(C)(F)F)ncc12` [SC-019, (S)-1-(2,2-difluoropropyl)-N-(2-(8-methylimidazo[1,5-a]pyridin-3-yl)propan-2-yl)piperazine-2-carboxamide], the negative logarithm of the EC50 (pEC50) is 9.24.
The figure for `CN1CCN[C@H](C(=O)NC(C)(C)c2ncc3c(C4CC4)cccn23)C1` [SC-119, (S)-N-(2-(8-cyclopropylimidazo[1,5-a]pyridin-3-yl)propan-2-yl)-4-methylpiperazine-2-carboxamide] is 6.27; for `Cc1cccn2c(C(C)(C)NC(=O)[C@@H]3CNCCN3CC(C)C)ncc12` [SC-034, (S)-1-isobutyl-N-(2-(8-methylimidazo[1,5-a]pyridin-3-yl)propan-2-yl)piperazine-2-carboxamide] it is 9.60; for `CCN1CCNC[C@H]1C(=O)NC(C)(C)c1n[nH]c2c(C)cccc12` [SC-041, (S)-1-ethyl-N-(2-(7-methyl-1H-indazol-3-yl)propan-2-yl)piperazine-2-carboxamide] it is 9.66.
Regarding `Cc1cccn2c(C(C)(C)NC(=O)[C@@H]3CN(C(=O)c4cnn(C(C)C)c4)CCN3)ncc12` [SC-081, (S)-4-(1-isopropyl-1H-pyrazole-4-carbonyl)-N-(2-(8-methylimidazo[1,5-a]pyridin-3-yl)propan-2-yl)piperazine-2-carboxamide], the pEC50 is under 5.00.
With `Cc1cccn2c(C(C)(C)NC(=O)[C@@H]3CN(C4CCC(F)(F)CC4)CCN3)ncc12` [SC-055, (S)-4-(4,4-difluorocyclohexyl)-N-(2-(8-methylimidazo[1,5-a]pyridin-3-yl)propan-2-yl)piperazine-2-carboxamide], the pEC50 is 5.08.
On to `Cc1cccn2c(C(C)(C)NC(=O)[C@@H]3CN(CC4COC4)CCN3)ncc12` [SC-076, (S)-N-(2-(8-methylimidazo[1,5-a]pyridin-3-yl)propan-2-yl)-4-(oxetan-3-ylmethyl)piperazine-2-carboxamide], for which the pEC50 is 6.21.
The value for `Cc1cccn2c(C(C)(C)NC(=O)[C@@H]3CNCCN3CC3(C)CCOCC3)ncc12` [SC-037, (S)-N-(2-(8-methylimidazo[1,5-a]pyridin-3-yl)propan-2-yl)-1-((4-methyltetrahydro-2H-pyran-4-yl)methyl)piperazine-2-carboxamide] was 8.77.
The figure for `Cc1cccn2c(C(C)(C)NC(=O)[C@@H]3CNCCN3Cc3cccc(F)c3)ncc12` [SC-029, (S)-1-(3-fluorobenzyl)-N-(2-(8-methylimidazo[1,5-a]pyridin-3-yl)propan-2-yl)piperazine-2-carboxamide] is 9.96; for `Cc1cccn2c(C(C)(C)NC(=O)[C@@H]3CNCCN3Cc3cnn(C)c3)nc(C)c12` [SC-117, (S)-N-(2-(1,8-dimethylimidazo[1,5-a]pyridin-3-yl)propan-2-yl)-1-((1-methyl-1H-pyrazol-4-yl)methyl)piperazine-2-carboxamide] it is 8.80.
The value for `Cc1cccn2c(C(C)(C)NC(=O)[C@@H]3CNCCN3Cc3ccc(C(F)(F)F)nc3)ncc12` [SC-030, (S)-N-(2-(8-methylimidazo[1,5-a]pyridin-3-yl)propan-2-yl)-1-((6-(trifluoromethyl)pyridin-3-yl)methyl)piperazine-2-carboxamide] was 9.32.
In the case of `Cc1cccn2c(C(C)(C)NC(=O)[C@@H]3CN(Cc4ccn(C)n4)CCN3)ncc12` [SC-066, (S)-4-((1-methyl-1H-pyrazol-3-yl)methyl)-N-(2-(8-methylimidazo[1,5-a]pyridin-3-yl)propan-2-yl)piperazine-2-carboxamide], the negative logarithm of the EC50 (pEC50) was 5.80.
The value for `CCCN1CCN[C@H](C(=O)NC(C)(C)c2ncc3c(C)cccn23)C1` [SC-070, (S)-N-(2-(8-methylimidazo[1,5-a]pyridin-3-yl)propan-2-yl)-4-propylpiperazine-2-carboxamide] was 7.09; that for `Cc1cccn2c(C(C)(C)NC(=O)[C@@H]3CNCCN3Cc3ccnc(C4CC4)c3)ncc12` [SC-022, (S)-1-((2-cyclopropylpyridin-4-yl)methyl)-N-(2-(8-methylimidazo[1,5-a]pyridin-3-yl)propan-2-yl)piperazine-2-carboxamide] was 10.05.
The figure for `Cc1cccn2c(C(C)(C)NC(=O)[C@@H]3CN(C4CCOCC4)CCN3)ncc12` [SC-056, (S)-N-(2-(8-methylimidazo[1,5-a]pyridin-3-yl)propan-2-yl)-4-(tetrahydro-2H-pyran-4-yl)piperazine-2-carboxamide] is 5.52; for `CC(C)(NC(=O)[C@@H]1CNCCN1CC1CC(F)(F)C1)c1ncc2c(C(F)(F)F)cccn12` [SC-113, (S)-1-((3,3-difluorocyclobutyl)methyl)-N-(2-(8-(trifluoromethyl)imidazo[1,5-a]pyridin-3-yl)propan-2-yl)piperazine-2-carboxamide] it is 7.59; for `Cc1cccn2c(C(C)(C)NC(=O)C3CNCCN3Cc3ccn(C)n3)ncc12` (racemic) [SC-006, rac-1-((1-methyl-1H-pyrazol-3-yl)methyl)-N-(2-(8-methylimidazo[1,5-a]pyridin-3-yl)propan-2-yl)piperazine-2-carboxamide] it is 8.43.
The figure for `Cc1cccn2c(C(C)(C)NC(=O)C3CNCCN3Cc3cncnc3)ncc12` (racemic) [SC-005, rac-N-(2-(8-methylimidazo[1,5-a]pyridin-3-yl)propan-2-yl)-1-(pyrimidin-5-ylmethyl)piperazine-2-carboxamide] is 8.64.
